In brackets after ≈: the same amount, converted by molar mass. Like-named read-outs stand apart in the source and are kept apart here.
Experiments:
C. glabrata = experiment: Antifungal susceptibility testing of blood culture isolate; assay type: cell-based, Candida glabrata; details: Nakaseomyces glabratus
Source text: Case presentation: A patient with a surgically corrected Tetralogy of Fallot and pulmonary valve replacement (BioPulmonic Conduit) was admitted to the cardiology ward for treatment of their progessively worsening symptomatic heart failure. Their medical history reports multiple other co-morbidities including supravalvular (prothetic pulmonary valve) stenosis, supraventricular tachycardia, atrial fibrillation, diabetes mellitus type I, and intellectual disability. No history of IV drug use or recent immunosuppressive therapy was reported. On admission they received diuretic treatment and a percutaneous intervention was planned to treat the supravalvular pulmonary stenosis. However, ten days after admission they developed fever (40.5 °C) with elevated C-reactive protein (237.9 mg/L) and leukocytosis (14.0 × 10^9/L). […] Anidulafungine IV was started and follow-up bloodcultures were taken routinely. The patient improved clinically and their inflammation markers normalized. However, the bloodcultures were persistently positive, albeit with periods of negative cultures, despite adequate treatment with high-dose anidulafungin 200 mg IV daily. International guidelines recommend surgery to treat Candida prostethic valve infective endocarditis and/or long-term suppressive therapy with antifungal drugs. […]

yeasts = experiment: CLSI M27-A3 MIC; assay type: cell-based
Sporothrix brasiliensis = experiment: Murine subcutaneous sporotrichosis model; assay type: in vivo, Balb/c mice; details: oral gavage once a day, 30 days; ITZ 50 mg/kg; DD 1, 5 or 10 mg/kg
Experimental: Materials & Methods: 50 Balb/c mice, male, five to seven-week-old, were subcutaneous infected (left footpad) by a clinical isolate of S. brasiliensis (5.4 × 10^7 yeast/mice). Treatments started seven days post-inoculation (p.i) in all five groups (10 mice/each): G1 control group (placebo—receiving just the diluent of the drugs), G2 treatment group (itraconazole—ITZ 50 mg/kg); G3 to G5 DD treatment groups, 1, 5 and 10 mg/kg, respectively. All mice were treated once a day by oral gavage, for 30 consecutive days. Physical conditions and behavior were daily evaluated, and individual weight was weekly determined. At the 32nd day p.i. (48 h after the end of the treatments) animals were euthanasied and lung, liver, brain, kidneys, testicle and footpad were recovered aseptically and homogenized to mycological analysis. Fungal burden in each organ was measured by quantitatively counting colony-forming units (CFU). The determination of colony forming units (CFU)/gram of tissue (g) of S. brasiliensis in internal organs of groups were compared by non-parametric tests using Kruskal-Wallis combined with Wilcoxon. The weight loss assay was calculated considering the percentage of loss and/or increase between the value corresponding to the fungal inoculation day and to the end of the treatment.

Candida auris isolates = experiment: Disc diffusion, Oxoid discs; assay type: cell-based; details: 25 µg FLU and 5 µg CAS discs; […]
[1] = test system: Cryptococcus neoformans var grubii; experiment: microbe, parasite or virus in culture; assay type: cell-based; details: read-out: Minimal Inhibitory Concentration (MIC)
C. albicans = experiment: […] candidemia survey, susceptibility according to CLSI; assay type: cell-based, Candida albicans
Candida sp. = assay type: cell-based
Asp. flavus = experiment: Triazole resistance agar screening, four-well plate; details: RPMI agar, 1 µg/mL, 29 isolates
Experimental: (§2) All the isolates were identified phenotypically. […] Fungal spores were suspended in normal saline (0.85%) and adjusted to 0.5 McFarland and 50 μL was plated in each well. […] Plates were incubated at 35–37 °C for 72 h in ambient air. The presence or absence of growth was observed visually at 24 h, 48 h, and 72 h.

[2] = Therapeutic drug monitoring of VRC plasma levels; assay type: in vivo, human
Experimental: Materials & Methods: Patients are aged over 18 years and given antifungal therapy between January 2019–November 2020 in the Hacettepe University Hospitals were included. The study was approved by the University Clinical Research Ethics Committee. Demographics and antifungal treatment periods of the patients were analyzed retrospectively. As of January 2020, VRC plasma levels had started to be analyzed on a weekly basis in the study setting. Plasma VRC levels (target range: 1–5.5 mg/L) were measured by using liquid chromatography—triple quadrupole mass spectrometer (Shimadzu LCMS-8040). The impact of TDM on appropriateness of VRC treatment were evaluated by the numbers of treatment switch and the use of oral route.

[3] = test system: Fusarium solani (FS) mature biofilms; experiment: XTT biofilm damage assay; assay type: cell-based
Experimental: (§1) Materials & Methods: 10^5 cfu/mL of FS (n = 3) and SA (n = 3) BF-producing strains were incubated in RPMI at 37 °C for 48 h. PMN were isolated from healthy volunteers by dextran sedimentation/ficoll centrifugation. BF were incubated with PMN at effector-to-target ratio 5:1 alone or in combination with L-AMB (FS: 0.25/2/32 mg/L; SA: 0.25/1/16 mg/L) or VRC (FS: 8/64 mg/L; SA: 0.5/32 mg/L) at 37 °C/5% CO2 for 24 h. Antifungal activity was assessed by XTT reduction assay of metabolic activity. […] The % damage of the PMN+drug treatment was compared to that of PMN or drug alone by ANOVA (n = 8, p < 0.05).

[4] = test system: Scedosporium apiospermum (SA) mature biofilms; experiment: XTT biofilm damage assay; assay type: cell-based
Experimental: as §1

[5] = test system: Aspergillus isolates (total); experiment: Triazole resistance agar screening, four-well plate; details: RPMI agar, 1 µg/mL, 50 isolates
Experimental: as §2

[6] = Voriconazole exposure during ECMO, retrospective; assay type: in vivo, human

C[C@@H]1[C@H](O)[C@@H](C)/C=C/C=C/C=C/C=C/C=C/C=C/C=C/[C@H](O[C@@H]2O[C@H](C)[C@@H](O)[C@H](N)[C@@H]2O)C[C@@H]2O[C@](O)(C[C@@H](O)C[C@@H](O)[C@H](O)CC[C@@H](O)C[C@@H](O)CC(=O)O[C@H]1C)C[C@H](O)[C@H]2C(=O)O [amphotericin B]
MIC (C. glabrata): 0.38 µg/mL (≈ 0.411 µM)

CCC(C)n1ncn(-c2ccc(N3CCN(c4ccc(OCC5COC(Cn6cncn6)(c6ccc(Cl)cc6Cl)O5)cc4)CC3)cc2)c1=O (centres unmarked) [itraconazole]
MIC (yeasts; four sensitive isolates): 0.03 µg/mL (≈ 0.0425 µM) | MIC (yeasts; the other isolates, drug resistance): 0.06 to 16 µg/mL (≈ 0.085 to 22.7 µM) | fungal burden of internal organs vs placebo group (Sporothrix brasiliensis): lower fungal burden

OC(Cn1cncn1)(Cn1cncn1)c1ccc(F)cc1F [fluconazole]
median zone diameter (ZD) (Candida auris isolates): 0 mm | MIC [1]: > 32 µg/mL | non-susceptibility (C. albicans): 1% | Susceptibility to fluconazole (share of isolates) (Candida sp.; 2019): 66% | Susceptibility to fluconazole (share of isolates) (Candida sp.; full 12 month period in 2020): 82% | Susceptibility to fluconazole (share of isolates) (Candida sp.; overall, entire period reviewed): 74% | Susceptibility to fluconazole (share of isolates) (Candida sp.; to date in January–April 2020): 100%

C[C@@H](c1ncncc1F)[C@](O)(Cn1cncn1)c1ccc(F)cc1F [voriconazole]
isolates with growth only in voriconazole well, n (%) (Asp. flavus; 48 h): 1 (3.44%) | isolates with growth only in voriconazole well, n (%) (Asp. flavus; 72 h): 11 (37.93%) | median plasma level (range) ([2]; 88 levels in 34 patients, LC-MS): 4.2 (0.2–18.1) mg/L | Adverse effects, n (%) ([2]; Subtherapeutic (<1 mg/L)): 0 (0.0) | Adverse effects, n (%) ([2]; Supratherapeutic (>5.5 mg/L)): 4 (13.8) | Adverse effects, n (%) ([2]; Therapeutic (1–5.5 mg/L)): 0 (0.0) | VRC-related adverse effects ([2]; all at supratherapeutic levels): Four | plasma levels at subtherapeutic range (<1 mg/L), n (%) ([2]; n = 88): 14 (15.9%) | plasma levels at supratherapeutic range (>5.5 mg/L), n (%) ([2]; n = 88): 29 (33.0%) | plasma levels at therapeutic range (1–5.5 mg/L), n (%) ([2]; n = 88): 45 (51.1%) | MIC50 ([3]; Fusarium solani, read-out: BF MIC50 (≥50% BF damage), XTT, 24 h, 37 °C): > 256 µg/mL | interaction of drug+PMN vs drug alone ([3]; VRC 64 mg/L, PMN 5:1): antagonism | MIC50 ([4]; Scedosporium apiospermum, read-out: BF MIC50 (≥50% BF damage), XTT, 24 h, 37 °C): 32 µg/mL | BF damage ([4]; VRC 32 mg/L + PMN 5:1): 69.5 ± 3% | BF damage ([4]; VRC 32 mg/L alone): 61 ± 4% | isolates with growth only in voriconazole well, n (%) ([5]; 48 h): 1 (2%) | isolates with growth only in voriconazole well, n (%) ([5]; 72 h): 16 (32%) | samples with subtherapeutic concentration (<2 mg/L) ([6]; during ECMO): 56% | median trough concentration [IQR] ([6]; under ECMO): 2.4 [1.2–4.7] mg/L | median trough concentration [IQR] ([6]; without ECMO): 2.5 [1.4–3.9] mg/L | samples with subtherapeutic concentration (<2 mg/L) ([6]; without ECMO): 39%

From article PMC8624133, “10th Trends in Medical Mycology Held on 8 to 11 October 2021, Aberdeen, Scotland, Organized by the European Confederation of Medical Mycology (ECMM)” (Journal of Fungi, 2021)
